Tests used:
[1] = biological target: Dipeptidyl peptidase 4 (Rattus norvegicus, UniProt P14740); assay: In vitro inhibitory activity against Dipeptidyl peptidase IV (DPP-IV) extracted from rat plasma; type: cell-free
[2] = Half-life (t1/2) after an oral dose of 1 uM/Kg in monkey; type: ADME, organism-based; conditions: simiiformes, in vivo
[3] = Steady state volume of distribution male cynomolgus monkeys; type: ADME, organism-based, Macaca fascicularis; conditions: cynomolgus monkey, in vivo
[4] = tested on: Monkey; assay: In vivo ability to reduce the plasma glucose levels ( in 0-90 minutes glucose AUC) in monkey compared to control during an oral glucose tolerance test (PGTT); type: functional, Cercopithecidae
[5] = Cmax after an oral dose of 10 umol/Kg in male Sprague-Dawley rats; type: ADME, organism-based; set-up: dose 10 umol/Kg, route oral; conditions: rat, in vivo
[6] = Absolute bioavailability in male cynomolgus monkeys; type: ADME, organism-based, Macaca fascicularis; conditions: cynomolgus monkey, in vivo
[7] = Cmax after an oral dose of 10 umol/Kg in male cynomolgus monkeys; type: ADME, organism-based, Macaca fascicularis; set-up: dose 10 umol/Kg, route oral; conditions: cynomolgus monkey, in vivo
[8] = Steady state volume of distribution in male Sprague-Dawley rats; type: ADME, organism-based; conditions: rat, in vivo
[9] = Absolute bioavailability in maleSprague-Dawley rats; type: ADME, organism-based; conditions: male, Sprague-Dawley, rat, in vivo
[10] = Clearance from plasma in male cynomolgus monkeys; type: ADME, organism-based, Macaca fascicularis; conditions: cynomolgus monkey
[11] = Clearance from plasma in male Sprague-Dawley rats; type: ADME, organism-based; conditions: rat
[12] = Half-life (t1/2) after an oral dose of 100 mg in human; type: ADME, organism-based; conditions: in vivo
[13] = tested on: Monkey; assay: In vivo ability to reduce the peak plasma glucose levels in monkey compared to control ( 88 +/- 3 mg/dL) during an oral glucose tolerance test (OGTT); type: functional, Cercopithecidae

Dipeptidyl peptidase 4, sequence (P14740 whole entry): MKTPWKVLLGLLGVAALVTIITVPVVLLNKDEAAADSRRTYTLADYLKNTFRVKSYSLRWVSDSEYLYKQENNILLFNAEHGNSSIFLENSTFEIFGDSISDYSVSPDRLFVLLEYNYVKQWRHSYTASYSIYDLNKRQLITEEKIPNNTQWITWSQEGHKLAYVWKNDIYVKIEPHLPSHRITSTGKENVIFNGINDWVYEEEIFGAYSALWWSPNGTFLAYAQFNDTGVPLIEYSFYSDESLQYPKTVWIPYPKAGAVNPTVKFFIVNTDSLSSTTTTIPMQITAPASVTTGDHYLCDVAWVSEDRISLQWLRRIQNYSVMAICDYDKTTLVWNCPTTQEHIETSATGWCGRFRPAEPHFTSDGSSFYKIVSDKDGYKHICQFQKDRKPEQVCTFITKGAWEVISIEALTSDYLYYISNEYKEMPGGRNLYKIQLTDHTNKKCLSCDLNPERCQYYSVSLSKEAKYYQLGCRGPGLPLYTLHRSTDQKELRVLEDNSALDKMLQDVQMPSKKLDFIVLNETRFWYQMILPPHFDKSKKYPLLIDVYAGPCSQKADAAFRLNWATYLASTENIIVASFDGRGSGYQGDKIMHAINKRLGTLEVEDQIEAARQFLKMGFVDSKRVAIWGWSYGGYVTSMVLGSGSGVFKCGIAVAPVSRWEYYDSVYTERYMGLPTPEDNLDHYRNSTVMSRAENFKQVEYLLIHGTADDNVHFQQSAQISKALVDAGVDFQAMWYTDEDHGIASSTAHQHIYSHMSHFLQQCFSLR

Row | SMILES | IC50 [1] | half-life [2] | Vd [3] | Reduction [4] | Cmax [5] | bioavailability [6] | Cmax [7] | Vd [8] | bioavailability [9] | clearance [10] | clearance [11] | half-life [12] | Reduction [13]
1 | N#C[C@@H]1CCCN1C(=O)[C@@H](N)C1CCCCC1 | 2.8 nM |  |  |  |  |  |  |  |  |  |  |  | 
2 | N#Cc1ccc(NCCNCC(=O)N2CCC[C@H]2C#N)nc1 |  | 51 min | 0.841 L/kg | 38% | 3.65 µM | ≥ 74% | 7.56 µM | 0.67 L/kg | ≥ 74% | 21.9 mL/min/kg | 28 mL/min/kg | 51 min | 98
